Molecules are shown by their SMILES.

From ChEMBL document CHEMBL3507680, “University of Dundee, Gates Library screen for HepG2 cell viability” come the findings set out here.

This series is described as follows: Human HepG2 cell viability assay in 384 well format. In kind it is toxicity, cell-based. Also noted: dose 125 nL, time 70.5 hour; cytotoxicity at 70.5 h: concentration not given beside the values. The note with it: HepG2 cells, read-out: Inhibition.

Take `Cc1cc(=O)c2cc(F)ccc2n1CC(=O)O`: the cytotoxicity at 70.5 h was -3.7%.

Regarding `CCN(Cc1ccc(O)c(C(=O)O)c1)CC1CCOCC1`, the cytotoxicity at 70.5 h is -0.0411%.

Turning to `COc1ccc(C2CCCN2S(=O)(=O)c2cc(F)ccc2F)cc1` (stereo not drawn), the cytotoxicity at 70.5 h was -6.85%.

Consider `O=C(c1ccc2nccn2c1)N1CCC(CCn2cccn2)CC1`, for which the cytotoxicity at 70.5 h is -9.36%.

Turning to `CCN(c1ccc(C(=O)N2CCC(C)CC2)cc1)S(=O)(=O)CC`, the cytotoxicity at 70.5 h was found to be 2.02%.

For the compound `Cc1cnccc1N1CCN(c2nccc(CCC(F)(F)F)n2)CC1`, the cytotoxicity at 70.5 h was -9.06%.

`COc1ccc(CNCC(O)c2cccc(O)c2)cc1Br` (stereo not drawn): the cytotoxicity at 70.5 h is -3.02%.

Regarding `Cc1ncn(-c2cc(N3CCN(S(C)(=O)=O)CC3)ncn2)c1C`, the cytotoxicity at 70.5 h was -4.92%.

As to `CCn1c(C)nnc1SCCNc1nc(C)nc2c1cnn2C`, the cytotoxicity at 70.5 h was -9.87%.

Consider `O=C(c1cccc(CO)n1)N1CCOC(c2ccc(Cl)c(Cl)c2)C1` (stereo not drawn), for which the cytotoxicity at 70.5 h was -9.7%.

For the compound `COCCC(=O)N1Cc2cnc(Cc3ccc(OC)cc3)nc2C1`, the cytotoxicity at 70.5 h is -1.53%.

On to `CC(C)CNC(=O)c1ccc2c(=O)n(-c3ccccc3)cnc2c1`, for which the cytotoxicity at 70.5 h was -5.61%.

Consider `CN(C)C1CCCN(C(=O)c2ccc3sc4c(c3c2)CCNC4=O)CC1` (stereo not drawn), for which the cytotoxicity at 70.5 h was 1.18%.

For the compound `CC(C)Oc1ccccc1OCCN1C(=O)CCNC1=O`, the cytotoxicity at 70.5 h was determined as 22.4%.

Turning to `CCCNC(=O)CCC(=O)N1CCC(c2noc3cc(F)ccc23)CC1`, the cytotoxicity at 70.5 h is -8.21%.

Turning to `CC(C)C(Nc1nc(C(F)(F)F)nc2ccccc12)C(=O)O` (stereo not drawn), the cytotoxicity at 70.5 h is -1.94%.

As to `COCc1nc(C2CC2)nn1-c1cc(Cl)ccc1OC`, the cytotoxicity at 70.5 h is -3.71%.

`CS(=O)(=O)N1CCN(c2ccnc(N3CCCC3)n2)CC1`: the cytotoxicity at 70.5 h was -4.19%.

`COc1ccc(NC(=O)Cn2nc(C)c(C)cc2=O)c(OC)c1`: the cytotoxicity at 70.5 h is -8.67%.

On to `Cc1cccc(CN2CCCC(O)(CNCCN3CCCCC3)C2=O)c1` (stereo not drawn), for which the cytotoxicity at 70.5 h was 2.73%.

`CC(=O)c1cn(CC(=O)N2CCC3(CC2)OCCO3)c2ccccc12`: the cytotoxicity at 70.5 h was -5.36%.

Consider `CCC(Oc1ccc(N(C)S(C)(=O)=O)cc1)C(N)=O` (stereo not drawn), for which the cytotoxicity at 70.5 h was -5.31%.

For the compound `CCOCCN1C[C@H](c2cccc(OC)c2)[C@@H](N)C1`, the cytotoxicity at 70.5 h is -4.15%.

Turning to `N[C@H]1CN(C(=O)CCC(F)(F)F)C[C@@H]1c1ccccc1`, the cytotoxicity at 70.5 h is -5.15%.

Take `Cc1ccnc(OCC(=O)N2CCN(c3ncccn3)CC2)n1`: the cytotoxicity at 70.5 h is -12.6%.

For the compound `Cc1nc(C)c(C(=O)NCCNc2cc(N3CCCC3)ncn2)s1`, the cytotoxicity at 70.5 h is 9.32%.

For `O=C(c1cncc(N2CCC3(CC2)NCCNC3=O)n1)N1CCCCC1`, the cytotoxicity at 70.5 h was -4.89%.

For the compound `CCC(NC(=O)C(C)C)c1ccccc1C` (stereo not drawn), the cytotoxicity at 70.5 h is -5.31%.

Turning to `CCN1CCCC(CNC(=O)C2(c3cc(C)cc(C)c3)CCC2)C1` (stereo not drawn), the cytotoxicity at 70.5 h worked out at 28.2%.

Regarding `CCNc1cc2c(nn1)CCN(C(=O)C(C)c1c(C)noc1C)C2` (stereo not drawn), the cytotoxicity at 70.5 h is -4.66%.

As to `CC(NC(=O)NCC1(c2ccc(F)cc2)CCCC1)c1nncn1C` (stereo not drawn), the cytotoxicity at 70.5 h was -3.48%.

On to `O=C(CCn1cncn1)NC1CCc2nccn2C1` (stereo not drawn), for which the cytotoxicity at 70.5 h was -0.747%.

Turning to `COCCN1CCN(C(C)c2nc(C3CC3)no2)CC1` (stereo not drawn), the cytotoxicity at 70.5 h turned out to be 17%.

In the case of `Cc1noc(C(C)N2CCN(CCOCC(F)(F)F)CC2)n1` (stereo not drawn), the cytotoxicity at 70.5 h was 27.9%.

Regarding `CCOCCN1CCN(C(C)c2nc(C3CC3)no2)CC1` (stereo not drawn), the cytotoxicity at 70.5 h amounted to 12.1%.

Take `CCOc1ncccc1NC(=O)N1CCCN(C(=O)OC)CC1`: the cytotoxicity at 70.5 h was -0.675%.

As to `Cc1cc(C2CCCN(C(=O)Cc3csc(C(C)C)n3)C2)n[nH]1` (stereo not drawn), the cytotoxicity at 70.5 h was -5.03%.

In the case of `CC(C)CC(=O)Nc1cccc(CNCc2cccs2)c1`, the cytotoxicity at 70.5 h was -3.67%.

Turning to `CCOc1ncccc1NC(=O)N1CCN(c2ccc(O)cc2)CC1`, the cytotoxicity at 70.5 h is 1.58%.

As for `Cc1ccccc1C(C)N(C)Cc1nc2c(cnn2C)c(=O)[nH]1` (stereo not drawn), the cytotoxicity at 70.5 h was -6.49%.

Consider `CN(CC(=O)N1CCC(N(C)c2ccccc2)CC1)c1cnccn1`, for which the cytotoxicity at 70.5 h was 0.531%.

As for `CCOc1ccc(OCCN2CCC(N3CCNC3=O)CC2)cc1`, the cytotoxicity at 70.5 h was found to be 19%.

As for `CC1CN(C)CCN1CC(=O)NCCOc1cccc(F)c1` (stereo not drawn), the cytotoxicity at 70.5 h is -1.27%.

`Clc1ccc(CN2CCCCC2Cn2cncn2)c2ncccc12` (stereo not drawn): the cytotoxicity at 70.5 h was -0.976%.

Turning to `CC(C)c1ccc(OCCNC(=O)CN2CCN(C)CC2C)cc1` (stereo not drawn), the cytotoxicity at 70.5 h is 1.16%.

As for `CCN1CCOC(CNCc2ccccc2OCc2ccncc2)C1` (stereo not drawn), the cytotoxicity at 70.5 h turned out to be 14.2%.

As for `CNc1nc(CNC(=O)Nc2cccc(OC)c2)cs1`, the cytotoxicity at 70.5 h is -0.727%.

Regarding `CNc1nc(CNC(=O)Nc2cccc(-c3ncc(C)o3)c2)cs1`, the cytotoxicity at 70.5 h amounted to 9.47%.

Regarding `CNc1nc(CNC(=O)Nc2cccc(CSC)c2)cs1`, the cytotoxicity at 70.5 h is -3.79%.

`COc1ccc(CC(=O)N2CCCC(c3cc(C)[nH]n3)C2)cc1` (stereo not drawn): the cytotoxicity at 70.5 h was -3.16%.

In the case of `CNc1nc(CNC(=O)Nc2cccc(C(C)OC)c2)cs1` (stereo not drawn), the cytotoxicity at 70.5 h was -4.31%.

Consider `CC(=O)NCCNC(=O)CN1CCOC(Cn2cccn2)C1` (stereo not drawn), for which the cytotoxicity at 70.5 h was 0.989%.

For `Cn1cc(CCNC(=O)NCc2ccc3c(c2)OCCO3)cn1`, the cytotoxicity at 70.5 h was 2.32%.

As to `CN(Cc1cccc(F)c1)C(=O)c1cc2c([nH]c1=O)CCCC2=O`, the cytotoxicity at 70.5 h worked out at 2.65%.

Turning to `CN(Cc1ccc2c(c1)OCO2)C(=O)NCCc1cnn(C)c1`, the cytotoxicity at 70.5 h is -3.13%.

For `CC(NC(=O)NCCCn1cncn1)c1ccc(C(F)(F)F)cc1` (stereo not drawn), the cytotoxicity at 70.5 h is -7.5%.

As to `CC(NC(=O)NCCCn1cncn1)c1ccc(F)cc1` (stereo not drawn), the cytotoxicity at 70.5 h was -4.64%.

Consider `O=C1CCCc2[nH]c(=O)c(C(=O)N(Cc3ccsc3)C3CC3)cc21`, for which the cytotoxicity at 70.5 h was -1.04%.

As to `CC(C)(C)c1nc(CN2CCN(C(=O)c3cnccn3)CC2)cs1`, the cytotoxicity at 70.5 h was -1.47%.

For the compound `CN(Cc1cnn(C)c1)C(=O)NCc1ccc2c(c1)OCCO2`, the cytotoxicity at 70.5 h was found to be 0.47%.

For `COCCCNC(=O)CN(C)C(=O)c1ccc(-n2cccc2)cc1O`, the cytotoxicity at 70.5 h was -0.626%.

On to `Cc1ccsc1CN(C)C(=O)c1cc2c([nH]c1=O)CCCC2=O`, for which the cytotoxicity at 70.5 h is -7.76%.

Turning to `Cc1csc(N2CCN(CC(=O)N3CCNC3=O)CC2C)n1` (stereo not drawn), the cytotoxicity at 70.5 h is 12%.

`Cc1csc(N2CCN(CC(=O)Nc3ccncc3)CC2C)n1` (stereo not drawn): the cytotoxicity at 70.5 h turned out to be 9.84%.

On to `Cc1csc(N2CCN(CC(=O)Nc3cc(C)nn3C)CC2C)n1` (stereo not drawn), for which the cytotoxicity at 70.5 h was found to be 2.09%.

On to `OCCn1cc(CN2CCN(CCOc3ccc(F)cc3)CC2)cn1`, for which the cytotoxicity at 70.5 h was -2.54%.

Turning to `OCCn1cc(CN2CCN(CCOc3cccc(F)c3)CC2)cn1`, the cytotoxicity at 70.5 h is 1.71%.

Take `Cc1csc(CNC(=O)N(C)Cc2ccncc2)n1`: the cytotoxicity at 70.5 h is -0.603%.

Regarding `Cc1ccc(N(CCC#N)C(=O)CN2CCCC2c2ccsc2)cc1C` (stereo not drawn), the cytotoxicity at 70.5 h was found to be 0.542%.

For `COCCCNC(=O)CN(C)C(=O)c1cc2cc(C)ccc2nc1C`, the cytotoxicity at 70.5 h is 3.78%.

Take `CCN(CC)Cc1ccc(C(=O)N2CCCC2Cn2cc(C)cn2)o1` (stereo not drawn): the cytotoxicity at 70.5 h was 2.44%.

In the case of `CCN(CC)Cc1ccc(C(=O)N2CCCC2Cn2cccn2)cc1` (stereo not drawn), the cytotoxicity at 70.5 h is -7.71%.

Regarding `O=C(Nc1cccc(CNCc2ccsc2)c1)C1CC1`, the cytotoxicity at 70.5 h amounted to 7.14%.
